Reference: patent US8492328B2, “Biomarkers and methods for determining sensitivity to insulin growth factor-1 receptor modulators” (Bristol-Myers Squibb Company, priority 2007, dated 2013)
pIC50: −log10 of the molar value.

Experiments:
Assay in all cases: In vitro cellular proliferation assay ([3H]-thymidine incorporation)
Assay type in all cases: cell-based, human
SK-NSH = SK-NSH (Neuroblastoma)
Procedure: (§1) All pediatric sarcoma and neuroblastoma cell lines were obtained from Dr. Lee Helman at NIH. All cell lines were grown in RPMI medium supplemented with Glutamax (Gibco/Invitrogen #61870-036), 10% inactivated fetal bovine serum (Gibco/Invitrogen #16140-071), 10 mM Hepes, penicillin and streptomycin.
(§2) Cells were plated at an optimized density for each cell line per well in 96-well microtiter Falcon plates, incubated overnight, and then exposed to a serial dilution of drug. After 72 hours incubation with drug at 37° C., cells were pulsed with 4 μCi/ml [6-3H] thymidine (Amersham Pharmacia Biotech, UK) for 3 hours, trypsinized, harvested onto UniFilter-96, GF/B plates (PerkinElmer, Boston, Mass.) and scintillation was measured on a TopCount NXT (Packard, Conn.). Results were expressed as an IC50, which is the drug concentration required to inhibit cell proliferation by 50% to that of untreated control cells. The mean IC50 and standard deviation (SD) from multiple tests for each cell line were calculated.

TC32 = TC32 (Ewing)
Procedure: as §1, §2

JD = system: JD
Procedure: as §1, §2

VW = VW (Ewing)
Procedure: as §1, §2

LG = LG (Ewing)
Procedure: as §1, §2

CTR = system: CTR
Procedure: as §1, §2

KAG = KAG (Ewing)
Procedure: as §1, §2

[1] = Homo sapiens, 72 hours with drug, read-out: IC50

How did the pIC50 (SK-NSH; Homo sapiens, SK-N-SH, 72 hours with drug, read-out: IC50) turn out when `Cc1cc(N2CCOCC2)cc2[nH]c(-c3c(NC[C@@H](O)c4cccc(Cl)c4)cc[nH]c3=O)nc12` [Compound 1, (S)-4-(2-(3-chlorophenyl)-2-hydroxyethylamino)-3-(4-methyl-6-morpholino-1H-benzo[d]imidazol-2-yl)-pyridin-2(1-H)-one] was run?
The pIC50 was 6.71.

And the “Sensitivity Classification” value (SK-NSH)?
The value was “S (“S” means sensitive)”.

What about the pIC50 (TC32; Homo sapiens, TC-32, 72 hours with drug, read-out: IC50) of the same molecule?
Its pIC50 is 7.26.

What about the “Sensitivity Classification” value (TC32) of the same molecule?
Its value is “S (“S” means sensitive)”.

And the pIC50 (JD; Homo sapiens, JD (Ewing), 72 hours with drug, read-out: IC50)?
Its pIC50 is 6.63.

And the “sensitivity/resistance classification in words” value (JD; JD)?
The value was “resistant”.

What about the “Sensitivity Classification” value (JD; JD (Ewing)) of the same molecule?
Its value is “S (“S” means sensitive)”.

And the pIC50 (VW; [1])?
The pIC50 was 7.00.

And the “Sensitivity Classification” value (VW)?
The value was “S (“S” means sensitive)”.

And the pIC50 (LG; [1])?
The pIC50 was 7.20.

And the “Sensitivity Classification” value (LG)?
The value was “S (“S” means sensitive)”.

What about the “sensitivity/resistance classification in words” value (CTR; CTR) of the same molecule?
Its value is “resistant”.

And the “Sensitivity Classification” value (CTR; CTR (Rhabdomyosarcoma))?
The value was “R (“R” means resistant to the corresponding compounds.)”.

What about the pIC50 (CTR; Homo sapiens, CTR (Rhabdomyosarcoma), 72 hours with drug, read-out: IC50) of the same molecule?
Its pIC50 is 6.43.

What about the pIC50 (KAG; [1]) of the same molecule?
The pIC50 was 5.68.

What about the “Sensitivity Classification” value (KAG) of the same molecule?
The value was “R (“R” means resistant to the corresponding compounds.)”.
